Experiments:
Experiment in all cases: radiometric filter-binding kinase assay, Kinase HotSpot
Details in all cases: compound 0.5 µM; ATP 10 µM
PDGFRB (human) = PDGFRB (human) (UniProt P09619)
MAPK13 (human) = MAPK13 (human) (UniProt O15264)
TSSK2 (human) = TSSK2 (human) (UniProt Q96PF2)
PKN2 (human) = PKN2 (human) (UniProt Q16513)
ERBB4 (human) = ERBB4 (human) (UniProt Q15303)
AKT2 (human) = AKT2 (human) (UniProt P31751)
CDK6 CCND1 (human) = CDK6 CCND1 (human) (UniProt Q00534+P24385)
LRRK2 (human) = LRRK2 (human) (UniProt Q5S007)
NLK (human) = NLK (human) (UniProt Q9UBE8)
PRKCZ (human) = PRKCZ (human) (UniProt Q05513)
PLK3 (human) = PLK3 (human) (UniProt Q9H4B4)
CDK4 CCND1 (human) = CDK4 CCND1 (human) (UniProt P24385+P11802)
SYK (human) = SYK (human) (UniProt P43405)
FLT1 (human) = FLT1 (human) (UniProt P17948)
CLK3 (human) = CLK3 (human) (UniProt P49761)
WNK2 (human) = WNK2 (human) (UniProt Q9Y3S1)
MST4 (human) = MST4 (human) (UniProt Q9P289)
MAP4K2 (human) = MAP4K2 (human) (UniProt Q12851)
DAPK2 (human) = DAPK2 (human) (UniProt Q9UIK4)
Chain of DAPK2 (human) (Q9UIK4 whole entry, looked up): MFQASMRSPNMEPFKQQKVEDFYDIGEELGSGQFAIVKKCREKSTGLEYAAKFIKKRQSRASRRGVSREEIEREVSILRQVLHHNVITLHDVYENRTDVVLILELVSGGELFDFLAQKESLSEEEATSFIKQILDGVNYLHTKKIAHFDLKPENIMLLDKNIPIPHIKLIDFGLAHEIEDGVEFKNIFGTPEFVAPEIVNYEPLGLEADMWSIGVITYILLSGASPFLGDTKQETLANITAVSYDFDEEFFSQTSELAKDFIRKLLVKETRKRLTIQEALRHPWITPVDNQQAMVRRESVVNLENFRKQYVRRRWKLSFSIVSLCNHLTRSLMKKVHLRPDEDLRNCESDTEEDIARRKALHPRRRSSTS

LIMK1 (human) = LIMK1 (human) (UniProt P53667)
Chain of LIMK1 (human) (P53667 whole entry, looked up): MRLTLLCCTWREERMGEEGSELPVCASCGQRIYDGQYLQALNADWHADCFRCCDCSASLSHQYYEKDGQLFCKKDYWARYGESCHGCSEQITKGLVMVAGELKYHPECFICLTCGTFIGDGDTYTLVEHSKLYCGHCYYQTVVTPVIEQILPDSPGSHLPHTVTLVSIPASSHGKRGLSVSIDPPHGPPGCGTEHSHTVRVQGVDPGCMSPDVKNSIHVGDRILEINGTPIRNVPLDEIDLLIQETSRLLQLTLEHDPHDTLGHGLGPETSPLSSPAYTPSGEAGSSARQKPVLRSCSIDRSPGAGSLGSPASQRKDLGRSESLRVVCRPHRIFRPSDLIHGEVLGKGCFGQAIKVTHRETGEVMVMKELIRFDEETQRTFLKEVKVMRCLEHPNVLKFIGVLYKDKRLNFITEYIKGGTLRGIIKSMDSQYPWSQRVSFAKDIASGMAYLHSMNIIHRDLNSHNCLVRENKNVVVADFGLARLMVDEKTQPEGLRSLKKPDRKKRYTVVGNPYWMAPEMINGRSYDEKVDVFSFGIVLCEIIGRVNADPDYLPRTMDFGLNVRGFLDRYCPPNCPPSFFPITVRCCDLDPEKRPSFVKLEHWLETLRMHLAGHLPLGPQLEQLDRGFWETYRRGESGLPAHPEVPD

FER (human) = FER (human) (UniProt P16591)
TYRO3 (human) = TYRO3 (human) (UniProt Q06418)
CSNK1E (human) = CSNK1E (human) (UniProt P49674)
CDC42BPB (human) = CDC42BPB (human) (UniProt Q9Y5S2)
Chain of CDC42BPB (human) (Q9Y5S2 whole entry, looked up): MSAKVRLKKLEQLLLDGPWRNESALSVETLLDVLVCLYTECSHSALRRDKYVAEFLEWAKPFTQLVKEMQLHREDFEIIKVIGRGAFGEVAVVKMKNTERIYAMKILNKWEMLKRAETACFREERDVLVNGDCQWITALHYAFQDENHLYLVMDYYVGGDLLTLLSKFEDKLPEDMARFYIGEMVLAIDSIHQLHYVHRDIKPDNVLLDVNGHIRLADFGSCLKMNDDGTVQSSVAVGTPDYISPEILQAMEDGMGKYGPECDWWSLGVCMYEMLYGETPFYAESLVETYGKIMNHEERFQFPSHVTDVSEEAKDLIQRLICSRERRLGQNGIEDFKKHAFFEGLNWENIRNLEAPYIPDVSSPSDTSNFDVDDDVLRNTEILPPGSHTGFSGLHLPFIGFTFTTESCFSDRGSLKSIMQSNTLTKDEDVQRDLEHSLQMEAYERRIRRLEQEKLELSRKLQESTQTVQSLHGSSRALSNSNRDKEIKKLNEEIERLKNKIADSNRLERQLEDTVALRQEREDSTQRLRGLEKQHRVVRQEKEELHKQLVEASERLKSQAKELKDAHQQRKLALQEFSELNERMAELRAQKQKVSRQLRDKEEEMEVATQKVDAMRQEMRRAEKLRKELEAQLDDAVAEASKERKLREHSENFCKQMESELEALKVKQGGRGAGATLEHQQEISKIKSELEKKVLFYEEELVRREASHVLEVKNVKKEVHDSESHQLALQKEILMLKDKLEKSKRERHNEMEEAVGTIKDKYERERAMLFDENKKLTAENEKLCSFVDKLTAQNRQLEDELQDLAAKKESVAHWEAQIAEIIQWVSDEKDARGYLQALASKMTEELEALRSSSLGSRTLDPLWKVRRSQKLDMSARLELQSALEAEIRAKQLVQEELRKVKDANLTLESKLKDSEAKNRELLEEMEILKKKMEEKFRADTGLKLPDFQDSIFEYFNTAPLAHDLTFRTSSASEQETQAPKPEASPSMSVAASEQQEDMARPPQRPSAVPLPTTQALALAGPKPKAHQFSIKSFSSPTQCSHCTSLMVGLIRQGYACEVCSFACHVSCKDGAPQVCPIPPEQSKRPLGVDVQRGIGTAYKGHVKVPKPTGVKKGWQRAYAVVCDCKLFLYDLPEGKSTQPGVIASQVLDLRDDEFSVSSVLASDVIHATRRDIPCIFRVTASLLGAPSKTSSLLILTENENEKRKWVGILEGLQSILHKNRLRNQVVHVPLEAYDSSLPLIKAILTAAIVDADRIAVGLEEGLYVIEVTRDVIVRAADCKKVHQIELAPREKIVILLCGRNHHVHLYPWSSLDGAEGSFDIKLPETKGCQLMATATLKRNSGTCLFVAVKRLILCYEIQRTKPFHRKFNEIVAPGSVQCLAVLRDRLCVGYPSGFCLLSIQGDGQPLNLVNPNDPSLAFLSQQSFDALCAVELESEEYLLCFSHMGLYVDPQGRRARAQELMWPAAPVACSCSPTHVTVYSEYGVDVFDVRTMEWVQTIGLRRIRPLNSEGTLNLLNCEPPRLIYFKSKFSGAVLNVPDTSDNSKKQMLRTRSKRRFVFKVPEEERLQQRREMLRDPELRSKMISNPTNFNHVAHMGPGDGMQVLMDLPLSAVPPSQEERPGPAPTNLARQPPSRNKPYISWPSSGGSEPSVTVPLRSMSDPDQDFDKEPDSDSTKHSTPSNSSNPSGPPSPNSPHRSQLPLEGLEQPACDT

MAP3K7 TAB1 (human) = MAP3K7 TAB1 (human) (UniProt O43318+Q15750)
RPS6KA5 KD2 (human) = RPS6KA5 KD2 (human) (UniProt O75582)
MAPKAPK3 (human) = MAPKAPK3 (human) (UniProt Q16644)
CDK4 CCND3 (human) = CDK4 CCND3 (human) (UniProt P30281+P11802)
PRKCB2 (human) = PRKCB2 (human) (UniProt P05771)
RPS6KA4 KD2 (human) = RPS6KA4 KD2 (human) (UniProt O75676)
EPHA4 (human) = EPHA4 (human) (UniProt P54764)
WNK3 (human) = WNK3 (human) (UniProt Q9BYP7)
TTK (human) = TTK (human) (UniProt P33981)
MAPK12 (human) = MAPK12 (human) (UniProt P53778)
GRK7 (human) = GRK7 (human) (UniProt Q8WTQ7)
AURKC (human) = AURKC (human) (UniProt Q9UQB9)
Chain of AURKC (human) (Q9UQB9 whole entry, looked up): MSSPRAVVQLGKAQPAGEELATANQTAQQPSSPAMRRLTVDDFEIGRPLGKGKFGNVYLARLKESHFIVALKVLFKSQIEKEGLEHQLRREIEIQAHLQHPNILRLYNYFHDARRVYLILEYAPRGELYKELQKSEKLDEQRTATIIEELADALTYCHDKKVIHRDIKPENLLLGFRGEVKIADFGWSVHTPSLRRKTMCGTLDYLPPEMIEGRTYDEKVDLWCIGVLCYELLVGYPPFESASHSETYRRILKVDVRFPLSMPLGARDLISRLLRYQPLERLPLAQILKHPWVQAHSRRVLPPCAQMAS

FGFR1 (human) = FGFR1 (human) (UniProt P11362)
DDR2 (human) = DDR2 (human) (UniProt Q16832)
Chain of DDR2 (human) (Q16832 whole entry, looked up): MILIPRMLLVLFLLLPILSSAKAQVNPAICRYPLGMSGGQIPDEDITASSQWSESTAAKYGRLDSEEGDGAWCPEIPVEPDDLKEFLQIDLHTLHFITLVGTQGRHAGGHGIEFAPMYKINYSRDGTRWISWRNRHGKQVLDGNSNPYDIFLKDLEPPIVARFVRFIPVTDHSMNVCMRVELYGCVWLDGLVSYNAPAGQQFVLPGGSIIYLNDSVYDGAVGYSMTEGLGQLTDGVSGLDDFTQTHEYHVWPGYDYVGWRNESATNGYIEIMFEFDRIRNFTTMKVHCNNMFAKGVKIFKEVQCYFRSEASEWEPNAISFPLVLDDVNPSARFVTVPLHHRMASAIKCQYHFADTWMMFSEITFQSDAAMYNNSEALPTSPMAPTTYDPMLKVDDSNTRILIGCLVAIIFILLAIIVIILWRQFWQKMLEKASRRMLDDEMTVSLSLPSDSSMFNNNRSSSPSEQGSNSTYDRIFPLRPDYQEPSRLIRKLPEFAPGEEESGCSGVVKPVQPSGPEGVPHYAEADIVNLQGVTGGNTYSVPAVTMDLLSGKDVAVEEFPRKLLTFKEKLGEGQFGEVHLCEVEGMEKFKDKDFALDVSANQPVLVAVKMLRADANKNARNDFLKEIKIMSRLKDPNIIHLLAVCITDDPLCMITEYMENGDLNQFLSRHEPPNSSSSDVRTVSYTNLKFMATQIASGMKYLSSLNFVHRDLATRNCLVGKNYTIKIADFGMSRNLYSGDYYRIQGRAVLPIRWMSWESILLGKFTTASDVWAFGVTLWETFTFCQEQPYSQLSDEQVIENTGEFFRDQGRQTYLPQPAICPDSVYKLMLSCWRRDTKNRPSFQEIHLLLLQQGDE

ACVR1 (human) = ACVR1 (human) (UniProt Q04771)
SRC (human) = SRC (human) (UniProt P12931)
MAPK8 (human) = MAPK8 (human) (UniProt P45983)
PIM2 (human) = PIM2 (human) (UniProt Q9P1W9)

Chain of PDGFRB (human) (P09619 whole entry, looked up): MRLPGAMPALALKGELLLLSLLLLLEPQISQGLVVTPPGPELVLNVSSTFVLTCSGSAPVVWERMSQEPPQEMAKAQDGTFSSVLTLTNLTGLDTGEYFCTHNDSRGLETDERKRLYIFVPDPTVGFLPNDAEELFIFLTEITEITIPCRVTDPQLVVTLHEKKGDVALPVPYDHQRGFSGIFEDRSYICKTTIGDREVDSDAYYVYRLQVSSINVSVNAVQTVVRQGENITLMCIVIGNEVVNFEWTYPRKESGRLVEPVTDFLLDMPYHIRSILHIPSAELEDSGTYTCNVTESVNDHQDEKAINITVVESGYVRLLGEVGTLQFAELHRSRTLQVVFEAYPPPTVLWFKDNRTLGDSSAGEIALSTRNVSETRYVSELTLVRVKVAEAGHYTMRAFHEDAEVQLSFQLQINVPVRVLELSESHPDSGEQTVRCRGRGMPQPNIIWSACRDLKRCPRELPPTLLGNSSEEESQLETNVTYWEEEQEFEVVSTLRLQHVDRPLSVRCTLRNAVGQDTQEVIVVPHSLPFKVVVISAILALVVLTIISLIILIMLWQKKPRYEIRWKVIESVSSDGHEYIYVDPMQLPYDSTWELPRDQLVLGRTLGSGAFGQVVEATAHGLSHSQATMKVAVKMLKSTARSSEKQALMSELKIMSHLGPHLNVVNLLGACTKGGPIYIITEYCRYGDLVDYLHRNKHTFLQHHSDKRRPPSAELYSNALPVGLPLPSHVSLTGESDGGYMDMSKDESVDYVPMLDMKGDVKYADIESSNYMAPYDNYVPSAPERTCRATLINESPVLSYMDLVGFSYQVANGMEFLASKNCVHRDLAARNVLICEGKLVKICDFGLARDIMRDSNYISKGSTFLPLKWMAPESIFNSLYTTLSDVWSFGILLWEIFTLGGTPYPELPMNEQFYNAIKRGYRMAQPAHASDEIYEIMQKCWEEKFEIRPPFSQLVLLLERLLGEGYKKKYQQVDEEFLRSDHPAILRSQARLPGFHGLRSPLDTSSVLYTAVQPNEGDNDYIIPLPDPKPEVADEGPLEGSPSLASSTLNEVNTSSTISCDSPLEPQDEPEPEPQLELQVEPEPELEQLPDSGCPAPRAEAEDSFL

Structure (SMILES): COc1cc2ncnc(Nc3ccc(O)c(Br)c3)c2cc1OC
- residual activity (PDGFRB (human)): 93.7%
- residual activity (MAPK13 (human)): 102%
- residual activity (TSSK2 (human)): 98.7%
- residual activity (PKN2 (human)): 97.2%
- residual activity (ERBB4 (human)): 29.1%
- residual activity (AKT2 (human)): 98.7%
- residual activity (CDK6 CCND1 (human)): 95.4%
- residual activity (LRRK2 (human)): 82.7%
- residual activity (NLK (human)): 76.2%
- residual activity (PRKCZ (human)): 93%
- residual activity (PLK3 (human)): 95.2%
- residual activity (CDK4 CCND1 (human)): 101%
- residual activity (SYK (human)): 86.7%
- residual activity (FLT1 (human)): 83.4%
- residual activity (CLK3 (human)): 54.1%
- residual activity (WNK2 (human)): 102%
- residual activity (MST4 (human)): 90.2%
- residual activity (MAP4K2 (human)): 101%
- residual activity (DAPK2 (human)): 100%
- residual activity (LIMK1 (human)): 85.1%
- residual activity (FER (human)): 85.2%
- residual activity (TYRO3 (human)): 78.6%
- residual activity (CSNK1E (human)): 85.1%
- residual activity (CDC42BPB (human)): 98%
- residual activity (MAP3K7 TAB1 (human)): 100%
- residual activity (RPS6KA5 KD2 (human)): 93.4%
- residual activity (MAPKAPK3 (human)): 96.2%
- residual activity (CDK4 CCND3 (human)): 110%
- residual activity (PRKCB2 (human)): 98.7%
- residual activity (RPS6KA4 KD2 (human)): 93.8%
- residual activity (EPHA4 (human)): 83.7%
- residual activity (WNK3 (human)): 95.7%
- residual activity (TTK (human)): 105%
- residual activity (MAPK12 (human)): 92.8%
- residual activity (GRK7 (human)): 96.4%
- residual activity (AURKC (human)): 83.7%
- residual activity (FGFR1 (human)): 93.4%
- residual activity (DDR2 (human)): 119%
- residual activity (ACVR1 (human)): 128%
- residual activity (SRC (human)): 77.5%
- residual activity (MAPK8 (human)): 101%
- residual activity (PIM2 (human)): 94.1%

Source: the kinase profiling compilation of Christmann-Franck et al. (2016)
